Read-outs that look alike come from different tables or passages of the source.
Key:
pressor response to AII = test: Assay C: In vivo Intragastric Pressor Assay Response for AII Antagonists; details: rat; for inhibition at 3 mg/kg: po, AII pressor response
Method: Assay C: In vivo Intragastric Pressor Assay Response for All Antagonists
Male Sprague-Dawley rats weighing 225-300 grams were anesthetized with methohexital (30 mg/kg, i.p.) and catheters were implanted into the femoral artery and vein. The catheters were tunneled subcutaneously to exit dorsally, posterior to the head and between the scapulae. The catheters were filled with heparin (1000 units/ml of saline). The rats were returned to their cage and allowed regular rat chow and water ad libitum. After full recovery from surgery (3-4 days), rats were placed in Lucite holders and the arterial line was connected to a pressure transducer. Arterial pressure was recorded on a Gould polygraph (mmHg). Angiotensin II was administered as a 30 ng/kg bolus via the venous catheter delivered in a 50 μl volume with a 0.2 ml saline flush. The pressor response in mm Hg was measured by the difference from pre-injection arterial pressure to the maximum pressure achieved. The AII injection was repeated every 10 minutes until three consecutive injections yielded responses within 4 mmHg of each other. These three responses were then averaged and represented the control response to AII. The test compound was suspended in 0.5% methylcellulose in water and was administered by gavage. The volume administered was 2 ml/kg body weight. The standard dose was 3 mg/kg. Angiotensin II bolus injections were given at 30, 45, 60, 75, 120, 150, and 180 minutes after gavage. The pressor response to AII was measured at each time point. The rats were then returned to their cage for future testing. A minimum of 3 days was allowed between tests. Percent inhibition was calculated for each time point following gavage by the following formula: [(Control Response—Response at time point)/Control Response]×100.
3Assay C: In vivo Pressor Response

[1] = target: T1, angiotensin II receptor (rabbit aortic rings) (Oryctolagus cuniculus, UniProt P34976); test: Assay B: In vitro Vascular Smooth Muscle Response for AII (rabbit aortic rings, pA2); type: cell-based; details: two determinations given as a/b
T1 construct: The thoracic aorta was removed, cleaned of adherent fat and connective tissue and then cut into 3-mm ring segments; from tissue; host or cells: rabbit thoracic aorta rings, endothelium removed
T1 sequence (P34976 1-359): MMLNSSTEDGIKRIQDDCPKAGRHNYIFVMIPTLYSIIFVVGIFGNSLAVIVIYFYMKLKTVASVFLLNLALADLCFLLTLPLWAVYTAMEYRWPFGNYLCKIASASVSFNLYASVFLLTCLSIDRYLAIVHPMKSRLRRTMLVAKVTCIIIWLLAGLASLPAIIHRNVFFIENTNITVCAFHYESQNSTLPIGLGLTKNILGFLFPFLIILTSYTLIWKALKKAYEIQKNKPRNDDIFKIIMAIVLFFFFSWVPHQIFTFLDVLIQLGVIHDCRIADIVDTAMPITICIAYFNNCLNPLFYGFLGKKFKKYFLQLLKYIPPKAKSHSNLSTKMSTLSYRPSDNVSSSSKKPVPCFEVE
Method: Assay B: In vitro Vascular Smooth Muscle-response for AII
The compounds of the invention were tested for antagonist activity in rabbit aortic rings. Male New Zealand white rabbits (2-2.5 kg) were sacrificed using an overdose of pentobarbital and exsanguinated via the carotid arteries. The thoracic aorta was removed, cleaned of adherent fat and connective tissue and then cut into 3-mm ring segments. The endothelium was removed from the rings by gently sliding a rolled-up piece of filter paper into the vessel lumen. The rings were then mounted in a water-jacketed tissue bath, maintained at 37° C., between moveable and fixed ends of a stainless steel wire with the moveable end attached to an FT03 Grass transducer coupled to a Model 7D Grass Polygraph for recording isometric force responses. […] The preparations were equilibrated for one hour before approximately one gram of passive tension was placed on the rings. Angiotensin II concentration-response curves were then recorded (3×10^−10 to 1×10^−5 M). Each concentration of AII was allowed to elicit its maximal contraction, and then AII was washed out repeatedly for 30 minutes before rechallenging with a higher concentration of AII. Aorta rings were exposed to the test antagonist at 10^−5 M for 5 minutes before challenging with AII. Adjacent segments of the same aorta ring were used for all concentration-response curves in the presence or absence of the test antagonist. The effectiveness of the test compound was expressed in terms of pA2 values and were calculated according to H. O. Schild [Br. J. Pharmacol. Chemother., 2, 189-206 (1947)]. The pA2 value is […] which increases the EC50 value for AII by a factor of two. Each test antagonist was evaluated in aorta rings from two rabbits.
2Assay B: In vitro Vascular Smooth Muscle Response

[2] = target: angiotensin II AT1 receptor; test: Assay A: Angiotensin II Binding Activity (125I-AII displacement, rat uterine membrane preparation)
Method: Assay A: Antiotensin II Binding Activity
Compounds of the invention were tested for ability to bind to the smooth muscle angiotensin II receptor using a rat uterine membrane preparation. […] Rat uterine membranes were prepared from fresh tissue. All procedures were carried out at 4° C. Uteri were stripped of fat and homogenized in phosphate-buffered saline at pH 7.4 containing 5 mM EDTA. The homogenate was centrifuged at 1500×g for 20 min., and the supernatant was recentrifuged at 100,000×g for 60 min. The pellet was resuspended in buffer consisting of 2 mM EDTA and 50 mM Tris-HCl (pH 7.5) to a final protein concentration of 4 mg/ml. […] The reaction was initiates by the addition of membrane protein and the mixture was incubated at 25° C. for 60 min. The incubation was terminated with ice-cold 50 mM Tris-HCl (pH 7.5) and the mixture was filtered to separate membrane-bound labelled peptide from the free ligand. The incubation tube and filter were washed with ice-cold buffer. Filters were assayed for radioactivity in a Micromedic gamma counter. Nonspecific binding was defined as binding in the presence of 10 μM of unlabelled AII. Specific binding was calculated as total binding minus nonspecific binding. […] Binding data were analyzed by a nonlinear least-squares curve fitting program.
1Assay A: Angiotensin II Binding Activity

[3] = hypertensive patients, continued ACE inhibition; cited from earlier work
angiotensin II = details: binding experiments, functional assays and in vivo tests; cited from earlier work
[4] = tested on: myocardial fibrosis in animal models; details: cited from earlier work

CCCCc1nc(CCCC)n(Cc2ccc(-c3ccccc3-c3nnn[nH]3)cc2)n1 [Compound 3]
Assay C Duration (pressor response to AII; dose 10 mg/kg): >180 min
Assay C Duration (pressor response to AII; dose 30 mg/kg): 200^+ min.
Kb [1]: 2 nM
IC50 [2]: 5.4 nM

CCCCc1nc(CCCC)n(Cc2ccc(-c3ccccc3C(=O)NNS(=O)(=O)C(F)(F)F)cc2)n1 [Compound 5]
Assay C Duration (pressor response to AII; dose 30 mg/kg): 20 to 30 min
IC50 [2]: 200 nM

CCCCc1nc(Cl)nn1Cc1ccc(-c2ccccc2C(=O)O)cc1 [Compound 6]
Assay C Duration (pressor response to AII; dose 100 mg/kg): 120 min
IC50 [2]: 1300 nM

CCCCc1nc(Cl)nn1Cc1ccc(-c2ccccc2-c2nnn[nH]2)cc1 [Compound 7]
Assay C Duration (pressor response to AII; dose 30 mg/kg): 130 min
IC50 [2]: 84 nM

CCCCc1nc(Cl)n(Cc2ccc(-c3ccccc3C(=O)O)cc2)n1 [Compound 8]
IC50 [2]: 17000 nM

CCCCc1nc(Cl)n(Cc2ccc(-c3ccccc3-c3nnn[nH]3)cc2)n1 [Compound 9]
Assay C Duration (pressor response to AII; dose 30 mg/kg): 75 min
Assay C Duration (pressor response to AII; dose 100 mg/kg): 130 min
IC50 [2]: 700 nM

CCCCc1nc(C(F)(F)CCC)nn1Cc1ccc(-c2ccccc2-c2nnn[nH]2)cc1 [Compound 10]
Assay C Duration (pressor response to AII; dose 3 mg/kg): 100 min
Assay C Duration (pressor response to AII; dose 30 mg/kg): 240 min
IC50 [2]: 4.9 nM

CCCCc1nc(C(F)(F)CCC)n(Cc2ccc(-c3ccccc3-c3nnn[nH]3)cc2)n1 [Compound 11]
IC50 [2]: 160 nM

CCCc1nc(CCC)n(Cc2ccc(-c3ccccc3-c3nnn[nH]3)cc2)n1 [Compound 15]
IC50 [2]: 16 nM

CCCc1nc(CCC(C)C)n(Cc2ccc(-c3ccccc3-c3nnn[nH]3)cc2)n1 [Compound 16]
IC50 [2]: 6.4 nM

CCCCc1nc(-c2ccccc2)nn1Cc1ccc(-c2ccccc2-c2nnn[nH]2)cc1 [Compound 21]
IC50 [2]: 7 nM

CCCCc1cn(CC2CCCCC2)c(=O)n1Cc1ccc(-c2ccccc2-c2nnn[nH]2)nc1 [Compound 205]
Assay C Duration (pressor response to AII; dose 3 mg/kg): >180 min
inhibition at 3 mg/kg (pressor response to AII; dose 3 mg/kg): 40%
IC50 [2]: 20 nM

CCCCc1cn(C2C3CC4CC(C3)CC2C4)c(=O)n1Cc1ccc(-c2ccccc2-c2nnn[nH]2)nc1 (stereo not drawn) [Compound 213]
IC50 [2]: 51 nM

CCCCc1nc(CCC)nn1Cc1ccc(-c2ccccc2-c2nnn[nH]2)nc1 [Compound 246]
IC50 [2]: 72 nM

CCCCc1nc(CC(CC)CC)n(Cc2ccc(-c3ccccc3-c3nnn[nH]3)nc2)n1 [Compound 250]
inhibition at 3 mg/kg (pressor response to AII; dose 3 mg/kg): 0%
IC50 [2]: 43 nM

C[C@H](CS)C(=O)N1CCC[C@H]1C(=O)O [captopril]
plasma aldosterone [3]: gradual return of plasma aldosterone to baseline levels

CCCCc1nc(Cl)c(CC(=O)[O-])n1Cc1ccccc1[N+](=O)[O-].[Na+] [sodium salt of 2-butyl-4-chloro-1-(2-nitrobenzyl)imidazole-5-acetic acid]
angiotensin II antagonist activity (angiotensin II): specific competitive angiotensin II antagonist activity

CCCCc1nc(Cl)c(CC(=O)[O-])n1Cc1ccccc1Cl.[Na+] [sodium salt of 2-n-butyl-4-chloro-1-(2-chlorobenzyl)imidazole-5-acetic acid]
angiotensin II antagonist activity (angiotensin II): specific competitive angiotensin II antagonist activity

CC(=O)S[C@@H]1CC2=CC(=O)CC[C@]2(C)[C@H]2CC[C@@]3(C)[C@@H](CC[C@@]34CCC(=O)O4)[C@H]12 [spironolactone, 17-hydroxy-7α-mercapto-3-oxo-17α-pregn-4-ene-21-carboxylic acid γ-lactone acetate]
myocardial fibrosis [4]: prevents myocardial fibrosis in animal models
myocardial fibrosis ([4]; listed as Spironolactone): prevent fibrosis in animal models irrespective of the development of left ventricular hypertrophy and the presence of hypertension

Reference: patent US20040067915A1, “Method to treat cardiofibrosis with a combination of an angiotensin II antagonist and spironolactone” (G.D. Searle & Co., priority 1995, published 2004)
